The assay concerns haloperidol-induced deficits in locomotor activity in mice. Put plainly: Haloperidol-induced hypolocomotion model. In kind it is in vivo. The settings on record: 10 mg/kg intraperitoneally, haloperidol 0.2 mg/kg. An excerpt: This approach is also considered a valid method for screening drugs with potential antiparkinsonian effects. Thus, the ability of novel adenosine antagonists to block haloperidol-induced deficits in locomotor activity in mice can be used to assess both in vivo and potential antiparkinsonian efficacy.
Female TO mice (25-30 g) obtained from TUCK, UK, are used for all experiments. Animals are housed in groups of 8 [cage size—40 (width)×40 (length)×20 (height)cm] under 12 hr light/dark cycle (lights on 08:00 hr), in a temperature (20±2° C.) and humidity (55±15%) controlled environment. Animals have free access to food and water, and are allowed at least 7 days to acclimatize after delivery before experimental use.
Liquid injectable haloperidol (1 ml Serenance ampoules from Baker Norton, Harlow, Essex, each containing haloperidol BP 5 mg, batch #P424) are diluted to a final concentration of 0.02 mg/ml using saline. Novel test compounds are typically prepared as aqueous suspensions in 8% Tween. All compounds are administered intraperitoneally in a volume of 10 ml/kg.
1.5 hours before testing, mice are administered 0.2 mg/kg haloperidol, a dose that reduces baseline locomotor activity by at least 50%. […] Horizontal locomotor activity is determined by placing the cages within a frame containing a 3×6 array of photocells linked to a computer, which tabulates beam breaks. […]

For the compound `O[C@@H](c1cc(C(F)(F)F)nc2ccccc12)[C@H]1CCCCN1` (relative stereo) [Example 39, (11S*, 2′R*)-α-(2-Piperidinyl)-2-trifluoromethyl-4-quinolinemethanol (Racemic)], the “reversal of haloperidol-induced hypolocomotion” value is recorded as “significantly reversed”.

For the origin of these results see US6608085B1, “4-quinolinemethanol derivatives as purine receptor antagonists (II)” (Vernalis Research Limited, priority 1998, dated 2003).
